Measured values taken from patent US11382907B2, “Methods and compositions for treating aging-associated impairments using CCR3-inhibitors” (Alkahest, Inc., priority 2017, dated 2022).
“Also recorded” adds a separate entry of the source.

Assays:
[1] = tested on: two-month-old C57Bl/6 mice treated with rmCCL11; test: Barnes maze test in young mice given recombinant mouse CCL11; type: in vivo; conditions: 2-month-old mice; rmCCL11 i.p.; Compound 1 30 mg/kg p.o. b.i.d.
Source text: A modified Barnes maze was used to assess spatial working/episodic like learning and memory. The Barnes maze apparatus consists of a 122 cm diameter circular platform with 40 escape holes, each with a diameter of 5 cm placed along three rings of varying distances from the center of the platform. An escape box is attached to one of the holes and all holes are left uncovered. Bright lights and a fan are trained on the maze to provide adverse stimuli to encourage escape. Visual cues are placed on all four sides of the maze. Mice are given a series of 4 or 5 trials with inter-trial intervals of approximately 10 min, and the maximum duration of each trial is 90 or 120 sec. For each trial, mice are placed in the center of the maze. After 10 seconds, mice are allowed to explore, and the trial is ended if the mouse has found and entered an escape box before the end of the trial. Mice that cannot find the escape box are led to it and allowed to enter and given 30 sec to remain before being returned to its home cage. Training is done for 4 days. Data that is recorded and analyzed include velocity, escape latency, and distance moved.
Two-month-old C57Bl/6 mice were dosed with either vehicle control or Compound 1 by oral gavage twice daily for 18 days. During the last week of treatment, mice were subjected to behavior testing prior to perfusion on the last day of treatment. […]

blood eosinophils = test: Oxazolone-induced model of eosinophilia in hairless mice (CBC); type: in vivo; conditions: 3-month-old hairless mice, oxazolone every other day, 30 mg/kg PO BID 2 weeks
Description: 3-month-old hairless mice were treated with oxazolone (Ox) every other day and treated with control saline or 30 mg/kg Compound 1 for 2 weeks BID, PO.
Treatment Groups: • Treatment Group 1, Vehicle treatment: 3-month-old Hairless mice (n=3) received twice daily (BID) oral gavage (PO) treatment of vehicle solution for 2 weeks. • Treatment Group 2, Vehicle treatment and Oxazolone treatment: 3-month-old Hairless mice (n=6) received twice daily (BID) oral gavage (PO) treatment of vehicle solution for 2 weeks. • Treatment Group 3, Compound 1 treatment and Oxazolone treatment: 3-month-old Hairless mice (n=6) received twice daily (BID) oral gavage (PO) treatment of Compound 1, 30 mg/kg, for 2 weeks.

[2] = tested on: human eosinophils activated by human eotaxin-1; test: Eosinophil shape change (ESC) assay (FACS, whole blood); type: cell-based; conditions: whole blood from humans treated with Compound 1, incubated with human recombinant eotaxin-1
Description: The ESC determines the shape change of human eosinophils activated by human eotaxin-1 (PreProTech, Rocky Hill, N.J.) compared to native eosinophils. The change is detected as the change in the forward-scatter measured by FACS (fluorescence activated cell sorter). The mean forward scatter of the autofluorescence (eosinophil) population for each sample was determined in conjunction with the mean of each set of sample triplicates. Methods of determining ESC have been previously described and are known in the art.
Whole blood from humans treated with Compound 1 was incubated with human recombinant eotaxin-1 to trigger eosinophil shape change (FIG. 34A) or CCR3 receptor internalization (FIG. 34B).

[3] = tested on: inflammatory cytokines TNFa, IL6, IL1beta, IL5, IL17; test: Luminex assay of inflammatory cytokines in plasma of aged mice; type: in vivo, C57Bl/6 mice; conditions: 23-month-old mice, 30 mg/kg SQ BID 21 days
Description: Panels of circulating cytokines from mouse plasma were analyzed by Luminex. Luminex Assay Service performed by Eve Technologies (Calgary, Alberta, Canada).
23-month-old C57Bl/6 mice were dosed with either vehicle control or Compound 1 subcutaneously twice daily for 21 days. Three weeks later, mice were subjected to behavior testing, and sacrificed the day following the last behavior test.
Treatment Groups: • Treatment Group 1b, Vehicle treatment: Aged C57Bl/6 mice (n=9), aged 23 months, received twice daily (BID) subcutaneous (SQ) treatment of vehicle solution for 21 days. • Treatment Group 4, Compound 1 treatment: Aged C57Bl/6 mice (n=17), aged 23 months, received twice daily (BID) subcutaneous (SQ) treatment of Compound 1, 30 mg/kg, for 21 days.

CCR3 = target: T1, CCR3 (Mus musculus, UniProt P51678); test: cell line receptor binding (Ki for the compound in mice); conditions: determined by cell line receptor binding
T1 construct: host or cells: unnamed cell line
T1 sequence (P51678 1-359): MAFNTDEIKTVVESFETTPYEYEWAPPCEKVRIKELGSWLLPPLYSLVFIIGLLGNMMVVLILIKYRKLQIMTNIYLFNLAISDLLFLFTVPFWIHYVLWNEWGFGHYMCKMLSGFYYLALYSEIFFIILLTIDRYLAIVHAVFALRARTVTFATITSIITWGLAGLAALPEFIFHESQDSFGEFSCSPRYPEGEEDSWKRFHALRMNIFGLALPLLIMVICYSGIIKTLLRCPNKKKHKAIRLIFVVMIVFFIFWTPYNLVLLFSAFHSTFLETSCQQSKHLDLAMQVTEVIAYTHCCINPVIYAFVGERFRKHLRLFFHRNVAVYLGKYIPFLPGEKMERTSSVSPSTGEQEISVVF

Ki (CCR3): 124 nM
Structure (SMILES): Cc1cc(C(=O)N(C)C)cc(NC(=O)[C@H]2CCC(=O)N2C2CCN(Cc3ccc(Cl)c(C)c3)CC2)n1 [Compound 1]
memory in the Barnes maze [1]: significantly improved memory performance
blood eosinophils (percentage of WBC count) (blood eosinophils): decreased the oxazolone-induced increase in blood eosinophils; also recorded: decreased an oxazolone-induced increase in blood eosinophils
inhibition of eosinophil shape change versus plasma Compound 1 concentration [2]: robust concentration-dependent effect
plasma IL1beta level [3]: strong trends in decrease; also recorded: trend lower
plasma IL5 level [3]: strong trends in decrease; also recorded: trend lower
plasma IL6 level [3]: strong trends in decrease; also recorded: trend lower
plasma IL17 level [3]: strong trends in decrease; also recorded: trend lower
plasma TNFa level [3]: strong trends in decrease; also recorded: trend lower
